Measurements from the supplement of paper PMC10307832.

Columns and labels:
Assay in all cases: relative viability (nuclei count vs DMSO), 5 days (fraction); higher = more cells survive
BMX-IN-1 + Crizotinib = compound: C=CC(=O)Nc1cc(-n2c(=O)ccc3cnc4ccc(-c5ccc(NS(C)(=O)=O)cc5)cc4c32)ccc1C [BMX-IN-1] + C[C@@H](Oc1cc(-c2cnn(C3CCNCC3)c2)cnc1N)c1c(Cl)ccc(F)c1Cl [Crizotinib] (partner 1 µM)
How it was run: (§1)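 Lung cancer cell lines were seeded in 1536-well plates and dosed by pin tool the next day, with either a single drug or a fixed anchor-drug dose combined with five library-drug doses (not always all listed) spaced in √10 steps. Five days later, one step fixed the cells and stained their nuclei (final 0.05% Triton X-100, 1% formaldehyde, 1 ug/ml Hoechst), and nuclei were counted on 4× images. Relative viability is the nuclei count in treated wells divided by the count in vehicle wells, and each value is the median of duplicate plates.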

BMX-IN-1 + Alpelisib = compound: C=CC(=O)Nc1cc(-n2c(=O)ccc3cnc4ccc(-c5ccc(NS(C)(=O)=O)cc5)cc4c32)ccc1C [BMX-IN-1] + Cc1nc(NC(=O)N2CCC[C@H]2C(N)=O)sc1-c1ccnc(C(C)(C)C(F)(F)F)c1 [Alpelisib] (partner 2 µM)
How it was run: as §1

BMX-IN-1 + Decitabine = compound: C=CC(=O)Nc1cc(-n2c(=O)ccc3cnc4ccc(-c5ccc(NS(C)(=O)=O)cc5)cc4c32)ccc1C [BMX-IN-1] + Nc1ncn([C@H]2C[C@H](O)[C@@H](CO)O2)c(=O)n1 [Decitabine] (partner 2 µM)
How it was run: as §1

PAC-1 + Palbociclib = compound: C=CCc1cccc(/C=N/NC(=O)CN2CCN(Cc3ccccc3)CC2)c1O [PAC-1] + CC(=O)c1c(C)c2cnc(Nc3ccc(N4CCNCC4)cn3)nc2n(C2CCCC2)c1=O [Palbociclib] (partner 0.5 µM)
How it was run: as §1

PAC-1 + Vorinostat = compound: C=CCc1cccc(/C=N/NC(=O)CN2CCN(Cc3ccccc3)CC2)c1O [PAC-1] + O=C(CCCCCCC(=O)Nc1ccccc1)NO [Vorinostat] (partner 1 µM)
How it was run: as §1

| Cell Line | relative viability (BMX-IN-1 + Crizotinib; first compound 0.02 µM) | relative viability (BMX-IN-1 + Crizotinib; first compound 0.2 µM) | relative viability (BMX-IN-1 + Crizotinib; first compound 0.6325 µM) | relative viability (BMX-IN-1 + Crizotinib; first compound 2 µM) | relative viability (BMX-IN-1 + Alpelisib; first compound 0.02 µM) | relative viability (BMX-IN-1 + Alpelisib; first compound 0.2 µM) | relative viability (BMX-IN-1 + Alpelisib; first compound 0.6325 µM) | relative viability (BMX-IN-1 + Alpelisib; first compound 2 µM) | relative viability (BMX-IN-1 + Decitabine; first compound 0.02 µM) | relative viability (BMX-IN-1 + Decitabine; first compound 0.2 µM) | relative viability (BMX-IN-1 + Decitabine; first compound 0.6325 µM) | relative viability (BMX-IN-1 + Decitabine; first compound 2 µM) | relative viability (PAC-1 + Palbociclib; first compound 0.02 µM) | relative viability (PAC-1 + Palbociclib; first compound 0.06325 µM) | relative viability (PAC-1 + Palbociclib; first compound 0.2 µM) | relative viability (PAC-1 + Palbociclib; first compound 2 µM) | relative viability (PAC-1 + Vorinostat; first compound 0.02 µM) | relative viability (PAC-1 + Vorinostat; first compound 0.06325 µM) | relative viability (PAC-1 + Vorinostat; first compound 0.2 µM) | relative viability (PAC-1 + Vorinostat; first compound 2 µM) |
| --- | --- | --- | --- | --- | --- | --- | --- | --- | --- | --- | --- | --- | --- | --- | --- | --- | --- | --- | --- | --- |
| NCI-H1355 | 1.27 | 1.17 | 1.08 | 1.13 | 0.906 | 0.943 | 0.865 | 0.786 | 0.357 | 0.368 | 0.355 | 0.401 | 0.43 | 0.39 | 0.412 | 0.421 | 0.61 | 0.625 | 0.572 | 0.665 |
| NCI-H1437 | 1.3 | 1.01 | 1.1 | 1.07 | 1.26 | 0.953 | 1.1 | 1.05 | 0.672 | 0.603 | 0.623 | 0.575 | 0.298 | 0.35 | 0.355 | 0.307 | 0.831 | 0.816 | 0.717 | 0.563 |
| NCI-H1651 | 0.976 | 1.01 | 0.907 | 0.862 | 1.07 | 1.06 | 0.943 | 0.863 | 0.5 | 0.667 | 0.722 | 0.593 | 0.525 | 0.536 | 0.547 | 0.499 | 0.544 | 0.531 | 0.489 | 0.588 |
| NCI-H1666 | 1.08 | 0.98 | 1.05 | 0.906 | 1.03 | 1.02 | 1.13 | 1.08 | 0.673 | 0.746 | 0.839 | 0.716 | 0.605 | 0.643 | 0.676 | 0.632 | 1.08 | 1.03 | 1 | 1.09 |
| NCI-H1734 | 0.797 | 0.807 | 0.794 | 0.703 | 0.668 | 0.717 | 0.783 | 0.652 | 0.534 | 0.568 | 0.522 | 0.831 | 0.307 | 0.328 | 0.297 | 0.355 | 0.825 | 0.792 | 0.767 | 0.895 |
| NCI-H1755 | 1.01 | 1.07 | 0.958 | 0.843 | 1.01 | 1.23 | 1.06 | 0.965 | 0.644 | 0.683 | 0.795 | 0.758 | 0.473 | 0.444 | 0.453 | 0.468 | 0.777 | 0.787 | 0.774 | 0.718 |
| NCI-H1915 | 1.28 | 0.964 | 0.946 | 0.977 | 1.08 | 1.03 | 1.04 | 1.13 | 0.282 | 0.272 | 0.284 | 0.273 | 0.502 | 0.535 | 0.49 | 0.518 | 0.507 | 0.506 | 0.427 | 0.562 |
| NCI-H1944 | 1.21 | 1.28 | 1.21 | 1.07 | 0.858 | 0.931 | 0.921 | 0.798 | 0.459 | 0.402 | 0.481 | 0.426 | 0.272 | 0.347 | 0.374 | 0.371 | 0.537 | 0.555 | 0.542 | 0.642 |
| NCI-H1975 | 1.31 | 1.02 | 1.11 | 0.86 | 0.714 | 0.686 | 0.664 | 0.592 | 0.362 | 0.345 | 0.42 | 0.417 | 0.629 | 0.605 | 0.52 | 0.725 | 0.71 | 0.713 | 0.765 | 0.77 |
| NCI-H1993 | 0.912 | 0.873 |  | 0.835 | 0.811 | 0.752 |  | 0.668 | 0.678 | 0.525 | 0.53 | 0.631 | 0.647 | 0.656 | 0.757 | 0.646 | 0.821 | 0.895 | 0.658 | 0.652 |
| NCI-H2009 | 1.11 | 1.07 | 1.26 | 1.06 | 1.05 | 1.33 | 1.25 | 1.18 | 0.381 | 0.402 | 0.41 | 0.368 | 0.203 | 0.231 | 0.236 | 0.239 | 0.669 | 0.685 | 0.732 | 0.741 |
| NCI-H2023 | 0.865 | 0.639 | 0.753 | 0.676 | 0.617 | 0.675 | 0.686 | 0.627 | 0.236 | 0.247 | 0.223 | 0.295 | 0.343 | 0.353 | 0.355 | 0.33 | 0.741 | 0.605 | 0.495 | 0.474 |
| NCI-H2085 | 0.98 | 0.815 | 0.897 | 0.855 | 0.944 | 0.981 | 0.834 | 0.917 | 0.553 | 0.595 | 0.564 | 0.597 | 0.487 | 0.462 | 0.428 | 0.504 | 0.791 | 0.789 | 0.737 | 0.822 |
| NCI-H2087 | 0.902 | 1.02 | 1.01 | 1.03 | 1.12 | 1.28 | 1.32 | 1.24 | 0.29 | 0.343 | 0.239 | 0.325 | 0.241 | 0.241 | 0.285 | 0.214 | 0.678 | 0.665 | 0.722 | 0.858 |
| NCI-H2126 | 1.2 | 1.06 | 1.15 | 1.1 | 0.763 | 0.748 | 0.827 | 0.77 | 0.522 | 0.515 | 0.59 | 0.601 | 0.335 | 0.369 | 0.38 | 0.341 | 0.733 | 0.785 | 0.803 | 0.763 |
